Laboratory results published in patent US10869846B2, “N-acetylcysteine amide (NAC amide) in the treatment of diseases and conditions associated with oxidative stress” (SENTIENT LIFESCIENCES, INC., priority 2005, dated 2020).
Several values for one entry are separate records, joined by “and”; a condition that tells them apart may be missing. Identical values can stand only once. Marks after values point to notes of the source that are not given here.

Experiments:
Sprague Dawley rats = experiment: Catalase activities in tissues after 6Gy total-body x-ray radiation; assay type: in vivo, rat; settings: 500 mg/kg orally; for Catalase level: individual animals; for Catalase Mean: n = 3
Procedure: Animal studies: The irradiation of rats was performed at the Radiation Oncology Department of the Phelps County Regional Medical Center in Rolla, Mo., using a 16 MeV beam generated by a Varian linear accelerator, model Clinac 1800, and in accordance with the standards of humane laboratory animal protocols. A 20×20 or 25×25 cm field was used and output factors were checked once a week. Twelve animals were divided into 4 groups each containing 3 animals (Control, XRT, NAC amide+XRT and NAC+XRT). The radiation (XRT) control received whole body irradiation by 6 Gy of 16 MeV electrons. The NAC amide+XRT group received 500 mg/kg/day NAC amide immediately before irradiation and for three days after until sacrifice. The rats were anesthetized and heparinized blood was collected via cardiopuncture. Following sacrifice, liver, lung, brain and spleen were removed and stored at −70° C. until homogenization.
All experiments were performed using adult Albino SASCO Sprague Dawley female rats weighing about 250 g, which were purchased from Charles River Laboratories Inc. (Portage, Mich.). Twelve rats were shipped in paper crates (4 in each crate). Rats were delivered with a certificate including serological, bacteriological, pathological parasitological information. They were divided into 4 cages (3 rats in each cage) and kept in a temperature controlled (20° C.) room equipped to maintain a 12 h light-dark cycle. Standard rat chow (Purina rat chow) and tap water were supplied in individual glass bottle and given ad libitum. Water was changed daily. Weights of the animal were taken before giving the NAC amide treatment solution and amount of food eaten and water consumed was not measured because NAC amide was given orally but not in the drinking water or food.
NAC amide was provided by Novetide Ltd (Haifa Bay, Israel) including certificate of analysis and MSDS (lot #40233-64). NAC amide feeding solution was prepared freshly each day right before the administration by weighing 1.25 g NAC amide solid sample (Type HR-120 electronic balance, A&D Company limited, Japan. S/N: 12202464) and adding into 10 ml PBS solution and put on ice. One ml of this solution was administrated (gavaged) per rat orally by using animal feeding biomedical needles and 3 ml BD Luer-Lok Tip syringes. Rats received one-dose total-body 6 Gy/16 MeV x-ray radiation and 3 rats in each group were held in a covered bucket and received radiation at the same time. Each day at the same time, 500 mg/Kg body weight of NAC amide was administrated to the animals.
In assay solution, k(enzyme activity)= 1/60*ln(A0/A60)*(Total Volume of reaction/volume of sample) A0—Absorbance at 0 second A60—Absorbance at 60 second In sample, K(specific activity)=k/protein concentration.
Enzyme Activity Assays: Catalase (CAT) activity was determined spectrophotometrically and was expressed in kunits/mg protein and kunits/10^6 cells as described by M. Bradford, Anal. Biochem., 72:248-256 (1976).

PC12 cells [1] = experiment: Morphological assessment of glutamate toxicity; assay type: cell-based; settings: 10 mM glutamate, 750 μM NAC amide, 24 hours
Procedure: Cell culture and toxicity studies: Stock culture of PC12 cells, purchased from ATCC, were grown in 75 cm^2 tissue culture flasks in RPMI 1640, supplemented with 10% (v/v) heat-inactivated horse serum, and 5% (v/v) fetal bovine serum, to which 1% (v/v) penicillin and streptomycin were added. Cultures were maintained at 37° C. in a humidified atmosphere containing 5% CO2. The cells were passaged twice a week. Unless specified, all of the experiments were performed using Dulbecco's modified Eagle's medium (DMEM) as differentiation medium, supplemented with 0.5% (v/v) fetal bovine serum, 1% (v/v) penicillin and streptomycin. PC12 cells were plated at a density of 25×10^3 cells/well in a 24-well, collagen-coated plate for morphological assessment. The plate was divided into five groups in triplicate: 1) control: no glutamate, no NAC amide; 2) Nerve Growth Factor (NGF) control: NGF (100 ng/ml), no glutamate, no NAC amide; 3) NAC amide only: NGF (100 ng/ml), no glutamate, NAC amide (750 μM); 4) glutamate only: NGF (100 ng/ml), glutamate (10 mM), no NAC amide; and 5) Glu+NAC amide: NGF (100 ng/ml), glutamate (10 mM), NAC amide (750 μM). […]
Glutamate toxicity was evaluated by 1) morphological assessment of PC12 cells in the presence of glutamate; 2) measuring the amount of LDH released in the media 24 h after glutamate exposure; and 3) measuring cell viability using the MTS assay. […]

PC12 cells [2] = experiment: MDA measurement in glutamate-exposed cells; assay type: cell-based; settings: 24 h
Procedure: MDA measurement: To prepare the solution, 350 μl of straight cell homogenate, 100 μl of 500 ppm BHT (butylated hydroxytoluene), and 550 μl of 10% TCA (trichloroacetic acid) were combined and boiled for 30 min. The tubes were cooled on ice and centrifuged for 10 min at 2500 rpm. Five hundred (500) μl of the supernatant were removed and 500 μl of TBA (thiobarbituric acid) were added. The tubes were boiled again for 30 min, and then cooled on ice. From this solution, 500 μl were removed, added to 1.0 ml of n-butanol, vortexed, and centrifuged for 5 min at 60 g to facilitate a phase separation. The top layer was then filtered through 0.45 μm filters and injected onto a 5 μm C18 column (250×4.6 mm) on a reverse phase HPLC system. The mobile phase consisted of 69.4% 5 mM sodium phosphate buffer (pH=7.0), 30% acetonitrile, and 0.6% THF (tetrahydrofuran). The excitation wavelength was 515 nm; the emission wavelength was 550 nm (Draper H. H. et al., Free Radic Biol Med., 15(4):353-63, 1993).
Cells were plated and grown for 24 hours, and then they were exposed to glutamate (10 mM) in the presence or absence of NAC amide (750 μM). Twenty-four hours later, the cells were harvested and malondialdehyde levels were measured. Values represent means.+−.SD. Statistically different values of *P<0.002 and **P<0.05 were determined, compared to control. ***P<0.05 compared to glutamate-treated group.

mice = experiment: GSH and cysteine levels after administration to mice; assay type: in vivo; settings: 30 minutes after administration

Molecule | Catalase level (Sprague Dawley rats; LIVER, 500 mg/kg) | Catalase Mean (Sprague Dawley rats; LIVER) | Catalase level (Sprague Dawley rats; LUNG, 500 mg/kg) | Catalase Mean (Sprague Dawley rats; LUNG) | protection from glutamate toxicity (neurite morphology, light microscopy) (PC12 cells [1]) | MDA Levels (PC12 cells [2]; GLU (10 mM) + NAC amide (750 μM)) | MDA Levels (PC12 cells [2]; NAC amide (750 μM) alone) | GSH and cysteine levels (mice) | Catalase level (Sprague Dawley rats; LIVER, listed as AD4, 500 mg/kg) | Catalase level (Sprague Dawley rats; LUNG, listed as AD4, 500 mg/kg) | Catalase level (Sprague Dawley rats; LUNG, listed as ND4, 500 mg/kg)
CC(=O)N[C@@H](CS)C(=O)O [NAC, N-acetylcysteine] | 75.22 mU/mg and 69.09 mU/mg and 69.00 mU/mg | 71.11*** mU/mg | 2.12 mU/mg and 0.79 mU/mg and 0.48 mU/mg | 1.13 mU/mg | – | – | – | – | – | – | –
N-acetylcysteine amide [NAC amide] | – | 59.28** mU/mg | – | 0.68** mU/mg | slightly decreasing the bleb formation on neurites | 88 ± 11 nM/100 mg protein | 81 ± 22 nM/100 mg protein | Increases | 69.63 mU/mg and 57.88 mU/mg and 50.33 mU/mg | 1.02 mU/mg and 0.53 mU/mg | 0.50 mU/mg
